Laboratory results reported in patent publication EP0437336B1, “Biophosphoryl hydrazines and their use as pesticides” (priority 1990, dated 1991).
Values after ≈ are worked out from the molar mass of the structure shown. Where two headings read alike, the source gives them in different places.

What was measured:
Two-Spotted Spider Mite = test: Biological Method D: Foliar Insecticidal Activity Test, mite test; assay type: in vivo, Tetranychus urticae; set-up: key to LC50 TSM: I = inactive at concentration listed; details: for LC50: Tetranychus urticae, 24 h, read-out: TSM LC50; for LC50 / TSM LC50: foliar spray, kill after twenty-four hours; for LC50 TSM: Method D foliar test, Two-Spotted Spider Mite
Procedure: (§1) Biological Method D: Foliar Insecticidal Activity Test
(§2) In evaluating the foliar insecticidal activity of the compounds of this invention against insects and mites, the following test procedures were employed.
(§3) Not all compounds were tested at each of the several concentrations stated above. Test concentrations of a compound were selected as those most likely to differentiate dose response of a particular compound toward a particular test insect.
(§4) Initial evaluations were made on one or more of the following pests:
For the mite test, infested bean (Phaseolus limensis var. Woods Prolific) leaf discs [3.18 cm (1.25") in diameter] containing about 50 mites were placed in a Petri dish lid on a moistened piece of cotton. The leaves were then sprayed to thorough wetness with the test solution using a rotating turntable, held for twenty-four hours and then the percentage killed was determined.
(§5) The mortalities obtained in this manner were plotted on logarithmic probability paper.
(§6) The rotating turntable consists of a fixed, continuously operating spray nozzle under which targets are rotated at a fixed speed and distance. If the target is a Petri dish (such as for the bean beetle, armyworm, mite, or aphid tests), the distance from the nozzle is 38.1 cm (15 inches). If the target is a Mason jar (such as for the boll weevil test), the distance from the nozzle is 17.8 cm (7 inches). The nozzle is located 8 inches from the rotating shaft. The targets on individual platforms revolve around the shaft at 1 revolution per 20 seconds but only a brief portion of this time occurs in the spray path. Targets pass only once under the nozzle and then are removed to drying hoods.
(§7) The nozzle used is a 1/4 JCO Spraying Systems (Wheaton, Illinois) air atomizing nozzle equipped with a No. 2850 fluid cap and a No. 70 air cap. At the 68.95 x 10³ Pa gauge (10 psig) air pressure used and with liquid siphon feed, 1.89 ℓ/hr [0.5 GPH (gallons per hour)] are delivered in a round spray pattern with a 21 degree spray angle. Targets are misted with spray droplets to the point that the droplets coalesce to form a uniform thin film insufficient to drown test organisms.

Green Peach Aphid [1] = test: Biological Method D: Foliar Insecticidal Activity Test, aphid test; assay type: in vivo, Myzus persicae; details: foliar spray; kill after twenty-four hours
Procedure: as §1, §2, §3, §4
(§8) For the aphid test, infested broccoli (Brassica oleracea italica var. DiCicco) leaves containing about 50 aphids were placed in a Petri dish lid on a moistened piece of cotton. The leaves were then sprayed to thorough wetness with the test solution using a rotating turntable, held for twenty-four hours and then the percentage killed was determined.
as §5, §6, §7

Mexican Bean Beetle = test: Biological Method D: Foliar Insecticidal Activity Test, Mexican Bean Beetle test; assay type: in vivo, Epilachna varivestis; set-up: key to LC50 BB 96 hrs / LC50 BB 48 hrs.: I = inactive at concentration listed; details: for LC50: Epilachna varivestis
Procedure: as §1, §2, §3, §4
(§9) For the Mexican Bean Beetle and Southern armyworm tests, individual lima bean (Phaseolus limeniss var. Woods' Prolific) leaves were placed on moistened pieces of filter paper in Petri dishes. The leaves were then sprayed with the test solution using a rotating turntable and allowed to dry. The dishes were then infested with 10 third instar larvae of either the Mexican Been Beetle or the Southern Armyworm. The dishes were then covered. Percent mortality was determined for each species and spray concentration at 48 and 96 hours after treatment.
as §5, §6, §7

Southern Armyworm [2] = test: Biological Method D: Foliar Insecticidal Activity Test, Southern Armyworm test; assay type: in vivo, Spodoptera eridania; details: for AW 48 hrs LC50 / AW 96 hrs LC50: foliar spray; for AW 48 hrs LC50: 48 hours after treatment; for AW 96 hrs LC50: 96 hours after treatment; for LC50: Spodoptera eridania, Method D foliar test, Southern Armyworm
Procedure: as §1, §2, §3, §4, §9, §5, §6, §7

Boll Weevil [3] = test: Biological Method D: Foliar Insecticidal Activity Test, boll weevil test; assay type: in vivo, Anthonomous grandis; details: for BW 48 hrs LC50 / BW 96 hrs LC50: spray into jar
Procedure: as §1, §2, §3, §4
(§10) For the boll weevil test, 10 adult weevils were placed in a 0.24 ℓ (0.5 pint) glass Mason jar containing a small cube of apple. The weevils were confined to the jar by fiberglass screen mesh secured by a screw-type rim cap. The jars were then sprayed with the test solution using a rotating turntable; directing the spray through the mesh into the jar. The percentage killed was determined after forty-eight and ninety six hours.
as §5, §6, §7

[4] = tested on: southern corn rootworm, Diabrotica undecimpunctata howardi; test: Biological Method A: Corn Rootworm Screening Test (treated non-aggressive soil); details: soil concentration giving 90% mortality, 10 days at 27°C
Green Peach Aphid [5] = test: Biological Method D: Foliar Insecticidal Activity Test, aphid test; assay type: in vivo, Myzus persicae; set-up: key: I = inactive at concentration listed
Procedure: as §1, §2, §3, §4, §8, §5, §6, §7

Southern Armyworm [6] = test: Biological Method D: Foliar Insecticidal Activity Test, Southern Armyworm test; assay type: in vivo, Spodoptera eridania; set-up: key: I = inactive at concentration listed
Procedure: as §1, §2, §3, §4, §9, §5, §6, §7

[7] = tested on: southern corn rootworm, Diabrotica undecimpunctata howardi; details: at-planting soil application
Boll Weevil [8] = test: Biological Method D: Foliar Insecticidal Activity Test, boll weevil test; assay type: in vivo, Anthonomous grandis; set-up: key: I = inactive at concentration listed
Procedure: as §1, §2, §3, §4, §10, §5, §6, §7

[9] = foliar spray, 48 hours after treatment, read-out: BB 48 hrs. LC50
[10] = foliar spray, 96 hours after treatment, read-out: BB 96 hrs LC50
[11] = Method D foliar test, Mexican Bean Beetle, 48 hrs
[12] = Method D foliar test, Mexican Bean Beetle, 96 hrs
[13] = 96 hrs, read-out: LC50 AW 96 hrs
[14] = Method D foliar test, Boll Weevil
[15] = 48 hrs, read-out: LC50 AW 48 hrs

Compound	LC50 (Two-Spotted Spider Mite) [µg/mL]	GPA LC50 (Green Peach Aphid [1])	LC50 (Mexican Bean Beetle; [9]) [µg/mL]	LC50 (Mexican Bean Beetle; [10]) [µg/mL]	AW 48 hrs LC50 (Southern Armyworm [2])	AW 96 hrs LC50 (Southern Armyworm [2])	BW 48 hrs LC50 (Boll Weevil [3])	BW 96 hrs LC50 (Boll Weevil [3])	primary nonagressive Method A crw LC90 [4] [ppm]	TSM LC50 (Two-Spotted Spider Mite)	LC50 TSM (Two-Spotted Spider Mite)	LC50 BB 48 hrs. (Mexican Bean Beetle; [11])	LC50 BB 96 hrs (Mexican Bean Beetle; [12])	LC50 GPA (Green Peach Aphid [5])	secondary aggressive Method C crw LC50 ([7]; rated 17 days post-infestation) [kg/ha]	secondary aggressive Method C crw LC50 ([7]; value in brackets) [lb/acre]	LC50 BW 48 hrs (Boll Weevil [8])	also measured
CCOP(=S)(NNP(=S)(OCC)OCC(F)(F)C(F)(F)F)OCC (centres unmarked) [Compound 78]	150 (≈ 341 µM)	I	360 (≈ 818 µM)	150 (≈ 341 µM)	I	I	I	I	1.1	–	–	–	–	–	–	–	–	–
CCCCCOP(=S)(NNP(=S)(OCCC)OCCC)OCC (centres unmarked) [Compound 79]	–	I	380 (≈ 935 µM)	62 (≈ 153 µM)	I	I	I	I	1.1	I	–	–	–	–	–	–	–	–
CCOP(=S)(NNP(=S)(OCC(C)(C)C)OC(C)C)OCC (centres unmarked) [Compound 68]	520 (≈ 1320 µM)	I	500 (≈ 1270 µM)	150 (≈ 382 µM)	I	I	I	I	1.1	–	–	–	–	–	–	–	–	–
CCCCCCOP(=S)(NNP(=S)(OCCC)OCCC)OCC (centres unmarked) [Compound 80]	–	I	–	–	I	I	I	I	1.1	I	–	–	–	–	–	–	–	–
CCOP(=S)(NNP(=S)(OC)OC)OCC(C)(C)C (centres unmarked) [Compound 44]	–	–	–	–	–	–	–	–	0.37	–	I	I	I	I	0.56	0.50	–	LC50 (Southern Armyworm [2]; [13]): 500 µg/mL (≈ 1430 µM); LC50 BW 48 hrs (Boll Weevil [3]; Method D foliar test, Boll Weevil, 48 hrs): 380 ppm; LC50 BW 96 hrs (Boll Weevil [3]; [14]): 380 ppm; LC50 AW 48 hrs (Southern Armyworm [6]): I
CCCN(C)P(=S)(NNP(=S)(OCC)OCC)OCC (centres unmarked) [Compound 76]	150 (≈ 413 µM)	I	150 (≈ 413 µM)	62 (≈ 171 µM)	I	I	I	I	1.1	–	–	–	–	–	–	–	–	–
CCCOP(=S)(NNP(=S)(OCC)OC(C)(C)C(F)(F)F)OCC (centres unmarked) [Compound 69]	360 (≈ 833 µM)	I	500 (≈ 1160 µM)	62 (≈ 143 µM)	I	I	I	I	1.1	–	–	–	–	–	–	–	–	–
CCCOP(=S)(NNP(=O)(OCC)SC(C)CC)OCC (centres unmarked) [Compound 54]	–	–	–	–	–	–	–	–	1.1	–	I	I	I	I	–	–	I	LC50 (Southern Armyworm [2]; [15]): 52 µg/mL (≈ 137 µM); LC50 AW 96 hrs (Southern Armyworm [6]): I
CCOP(=S)(NNP(=S)(OCC)OC(C)(C(F)(F)F)C(F)(F)F)OCC(C)(C)C (centres unmarked) [Compound 48]	–	–	–	–	–	–	–	–	0.40	–	I	I	I	I	0.63	0.56	I	LC50 (Southern Armyworm [2]; [15]): 300 µg/mL (≈ 583 µM); LC50 (Southern Armyworm [2]; [13]): 150 µg/mL (≈ 292 µM); LC50 BW 96 hrs (Boll Weevil [8]): I
CCOP(=S)(NNP(=S)(OC(C)C)OC(C)C)OCC(C)C (centres unmarked) [Compound 83]	–	I	500 (≈ 1270 µM)	62 (≈ 158 µM)	I	–	–	–	–	I	–	–	–	–	–	–	–	–
CCOP(=O)(NNP(=S)(OCC)OCC(C)(C)C)SC(C)CC (centres unmarked) [Compound 52]	–	–	–	–	–	–	–	–	1.1	–	I	–	–	I	0.78	0.70	I	LC50 (Mexican Bean Beetle; Method D foliar test, Mexican Bean Beetle, 48 hrs, read-out: LC50 BB 48 hrs.): 500 µg/mL (≈ 1230 µM); LC50 (Mexican Bean Beetle; Method D foliar test, Mexican Bean Beetle, 96 hrs, read-out: LC50 BB 96 hrs): 150 µg/mL (≈ 369 µM); LC50 AW 48 hrs (Southern Armyworm [6]): I; LC50 AW 96 hrs (Southern Armyworm [6]): I; LC50 BW 96 hrs (Boll Weevil [8]): I
CCCCCCCCOP(=S)(NNP(=S)(OCC)OCC)OCC (centres unmarked) [Compound 72]	–	I	–	–	I	I	I	I	1.1	I	–	–	–	–	–	–	–	–
CCCOP(=S)(NNP(=S)(OCC)OCC(C)(C)C)OCC (centres unmarked) [Compound 45, N-(O-ethyl O-propylthiophosphoryl) N′-(O-ethyl O-neopentylthiophosphoryl) hydrazine]	–	–	–	–	–	–	–	–	0.39	–	I	I	I	I	0.37	0.33	I	LC50 (Southern Armyworm [2]; [13]): 150 µg/mL (≈ 382 µM); LC50 BW 96 hrs (Boll Weevil [3]; [14]): 150 ppm; LC50 AW 48 hrs (Southern Armyworm [6]): I
